Test results as given in patent US20230146870A1, “METHOD TO QUANTIFY AFFINITY AND SELECTIVITY OF SMALL MOLECULES FOR PROTEINS IN LIVING CELLS” (Ohio State Innovation Foundation, priority 2021, published 2023).
“Also recorded” adds a separate entry of the source.

Key:
[1] = target: T1, native (untagged) murine PKCβI (Mus musculus, UniProt P68404); experiment: FPCBA competition with probe 1, native PKCβI in HEK293 cells; assay type: binding; details: read-out: Cellular Ki for native PKCβI (95% confidence interval); probe 1 400 nM, BIM1 2 μM, 2 h at 37° C.
T1 construct: For coexpression of full-length unmodified PKC proteins with mVenus as an independent marker; expressed in transfected cells; host or cells: HEK293 (transient, pIRES-mVenus)

PKCη = PKCη (Homo sapiens, UniProt P24723); details: radiolabeled PDBu at 4° C.; read-out: Biochemical Ki, PKCη; cited from earlier work
Chain of PKCη (P24723 whole entry): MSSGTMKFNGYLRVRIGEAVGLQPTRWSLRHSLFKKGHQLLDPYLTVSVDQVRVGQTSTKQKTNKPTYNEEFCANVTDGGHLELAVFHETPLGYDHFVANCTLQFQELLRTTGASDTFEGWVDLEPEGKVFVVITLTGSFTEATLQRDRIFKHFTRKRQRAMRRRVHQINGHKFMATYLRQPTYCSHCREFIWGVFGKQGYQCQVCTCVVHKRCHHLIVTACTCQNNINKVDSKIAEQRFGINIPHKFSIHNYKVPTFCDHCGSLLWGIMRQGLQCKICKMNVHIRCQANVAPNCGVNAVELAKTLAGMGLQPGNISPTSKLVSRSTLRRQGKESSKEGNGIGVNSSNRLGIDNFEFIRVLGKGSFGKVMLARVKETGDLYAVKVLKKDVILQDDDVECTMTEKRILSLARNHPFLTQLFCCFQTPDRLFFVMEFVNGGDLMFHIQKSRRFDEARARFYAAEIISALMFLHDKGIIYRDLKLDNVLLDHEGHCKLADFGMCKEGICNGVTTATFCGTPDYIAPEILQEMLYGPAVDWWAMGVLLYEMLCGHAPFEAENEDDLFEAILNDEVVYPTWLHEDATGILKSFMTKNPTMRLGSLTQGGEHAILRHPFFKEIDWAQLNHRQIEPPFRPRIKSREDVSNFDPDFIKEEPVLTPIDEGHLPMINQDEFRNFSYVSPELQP

[2] = target: native (untagged) murine PKCη (Mus musculus, UniProt P23298); experiment: FPCBA competition with probe 1, native PKCη in HEK293 cells; assay type: binding; parameters: expressed in transfected cells; host or cells: HEK293 (ATCC CRL-1573), transient transfection with pIRES-mVenus carrying the PKC gene; details: read-out: Cellular Ki for native PKCη (95% confidence interval); probe 1 400 nM, BIM1 2 μM, 2 h at 37° C.
PKCβI = PKCβI (Homo sapiens, UniProt P05771); details: radiolabeled PDBu at 4° C.; read-out: Biochemical Ki, PKCβI; cited from earlier work
Chain of PKCβI (P05771 whole entry): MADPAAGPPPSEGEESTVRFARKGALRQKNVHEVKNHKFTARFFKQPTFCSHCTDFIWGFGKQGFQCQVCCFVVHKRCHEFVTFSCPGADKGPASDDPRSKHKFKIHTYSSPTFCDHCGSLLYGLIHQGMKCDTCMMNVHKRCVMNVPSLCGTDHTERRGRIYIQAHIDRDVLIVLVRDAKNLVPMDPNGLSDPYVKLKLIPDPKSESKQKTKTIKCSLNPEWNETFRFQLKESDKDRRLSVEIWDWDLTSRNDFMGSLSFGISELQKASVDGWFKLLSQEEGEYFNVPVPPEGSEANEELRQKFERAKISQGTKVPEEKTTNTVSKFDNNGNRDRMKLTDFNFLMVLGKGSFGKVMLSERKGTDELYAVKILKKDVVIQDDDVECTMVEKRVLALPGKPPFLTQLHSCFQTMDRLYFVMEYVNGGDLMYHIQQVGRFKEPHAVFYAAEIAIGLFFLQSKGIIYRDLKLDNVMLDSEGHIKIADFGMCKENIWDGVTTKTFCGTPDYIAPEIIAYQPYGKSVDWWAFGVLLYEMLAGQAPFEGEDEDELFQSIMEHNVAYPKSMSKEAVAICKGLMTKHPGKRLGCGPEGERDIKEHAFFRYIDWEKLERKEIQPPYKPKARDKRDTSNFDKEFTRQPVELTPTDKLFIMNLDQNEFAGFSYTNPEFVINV

[3] = target: native (untagged) murine PKCα (Mus musculus, UniProt P20444); experiment: FPCBA competition with probe 1, native PKCα in HEK293 cells; assay type: binding; parameters: For coexpression of full-length unmodified PKC proteins with mVenus as an independent marker; expressed in transfected cells; host or cells: HEK293 (transient, pIRES-mVenus); details: read-out: Cellular Ki for native PKCα (95% confidence interval); probe 1 400 nM, BIM1 2 μM, 2 h at 37° C.
murine PKCβI-mVenus = target: T2, murine PKCβI-mVenus (Mus musculus, UniProt P68404); experiment: FPCBA saturation binding, HEK293 cells expressing PKCβI-mVenus (Example 3)
T2 construct: fused on or other part: mVenus at the C-terminus
T2 sequence (P68404 2-621 limits assumed): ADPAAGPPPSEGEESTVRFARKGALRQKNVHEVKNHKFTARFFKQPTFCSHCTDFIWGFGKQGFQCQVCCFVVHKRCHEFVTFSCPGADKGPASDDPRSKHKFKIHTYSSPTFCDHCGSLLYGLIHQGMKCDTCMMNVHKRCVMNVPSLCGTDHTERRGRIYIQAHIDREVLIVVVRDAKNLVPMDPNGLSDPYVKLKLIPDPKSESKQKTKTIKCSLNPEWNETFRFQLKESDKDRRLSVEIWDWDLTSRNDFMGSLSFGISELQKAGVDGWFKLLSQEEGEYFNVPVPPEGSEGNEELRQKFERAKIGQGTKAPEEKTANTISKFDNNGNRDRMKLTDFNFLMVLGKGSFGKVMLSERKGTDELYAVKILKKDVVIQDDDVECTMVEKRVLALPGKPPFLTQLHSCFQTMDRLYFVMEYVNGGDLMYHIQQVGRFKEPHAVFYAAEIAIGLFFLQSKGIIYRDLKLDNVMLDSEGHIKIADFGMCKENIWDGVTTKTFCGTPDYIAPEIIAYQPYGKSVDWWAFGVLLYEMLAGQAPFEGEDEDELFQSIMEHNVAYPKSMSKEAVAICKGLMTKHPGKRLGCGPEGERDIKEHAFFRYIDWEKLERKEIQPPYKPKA
From the text: (§1) To investigate the potential for quantitative analysis of binding to PKCs expressed in cells, we evaluated whether 1-3 could readily achieve equilibrium, which is necessary for measurements of cellular equilibrium dissociation constants (Kd).

murine PKCδ-mVenus = murine PKCδ-mVenus (Mus musculus, UniProt P28867); experiment: FPCBA saturation binding of probe 1, HEK293 cells expressing PKCδ-mVenus (Example 3)
Chain of murine PKCδ-mVenus (P28867 whole entry): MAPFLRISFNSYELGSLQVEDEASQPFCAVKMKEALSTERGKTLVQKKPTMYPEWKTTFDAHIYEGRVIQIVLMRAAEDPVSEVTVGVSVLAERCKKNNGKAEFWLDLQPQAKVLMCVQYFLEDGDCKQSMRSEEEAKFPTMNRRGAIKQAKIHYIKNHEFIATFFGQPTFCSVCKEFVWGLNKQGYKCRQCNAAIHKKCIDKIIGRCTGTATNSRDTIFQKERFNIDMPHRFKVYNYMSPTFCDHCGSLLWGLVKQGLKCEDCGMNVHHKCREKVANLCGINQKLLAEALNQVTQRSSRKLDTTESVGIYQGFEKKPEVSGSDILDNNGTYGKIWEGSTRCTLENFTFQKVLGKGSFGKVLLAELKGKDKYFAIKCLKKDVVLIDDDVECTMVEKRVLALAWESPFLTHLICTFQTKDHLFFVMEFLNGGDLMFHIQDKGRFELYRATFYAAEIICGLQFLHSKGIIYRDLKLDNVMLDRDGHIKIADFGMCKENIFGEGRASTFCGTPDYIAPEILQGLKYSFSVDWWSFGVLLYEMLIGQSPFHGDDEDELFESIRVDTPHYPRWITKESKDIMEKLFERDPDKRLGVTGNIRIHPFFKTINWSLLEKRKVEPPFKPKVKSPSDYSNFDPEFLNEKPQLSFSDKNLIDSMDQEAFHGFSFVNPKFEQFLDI

mouse PKCβI-mVenus = target: T3, mouse PKCβI-mVenus (Mus musculus, UniProt P68404); experiment: Apparent cellular Kd by flow cytometry, HEK293 cells overexpressing PKCβI-mVenus (Example 2); assay type: binding
T3 construct: eight plasmids encoding full length mouse PKC isozymes fused to; expressed in transfected cells; host or cells: HEK293
T3 sequence (P68404 whole entry, the tested form may be a part): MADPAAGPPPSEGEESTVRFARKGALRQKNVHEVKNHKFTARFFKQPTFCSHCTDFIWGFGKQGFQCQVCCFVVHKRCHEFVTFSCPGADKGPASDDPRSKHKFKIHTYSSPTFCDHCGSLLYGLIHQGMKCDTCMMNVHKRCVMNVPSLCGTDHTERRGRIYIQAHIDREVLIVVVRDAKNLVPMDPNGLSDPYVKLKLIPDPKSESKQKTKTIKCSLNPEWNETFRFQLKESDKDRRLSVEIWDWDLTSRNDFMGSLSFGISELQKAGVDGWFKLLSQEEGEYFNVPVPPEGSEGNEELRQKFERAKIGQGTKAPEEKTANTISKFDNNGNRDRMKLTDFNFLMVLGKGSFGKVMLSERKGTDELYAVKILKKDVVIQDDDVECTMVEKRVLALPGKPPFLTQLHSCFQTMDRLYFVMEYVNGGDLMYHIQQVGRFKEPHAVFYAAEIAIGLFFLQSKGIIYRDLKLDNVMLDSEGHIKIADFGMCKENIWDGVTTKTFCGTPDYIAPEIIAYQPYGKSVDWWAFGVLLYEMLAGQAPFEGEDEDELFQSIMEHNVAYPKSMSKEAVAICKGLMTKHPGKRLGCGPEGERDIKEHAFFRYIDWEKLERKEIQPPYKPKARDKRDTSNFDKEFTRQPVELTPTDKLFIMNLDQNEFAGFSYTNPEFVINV
Method: The apparent Kd values of these fluorescent probes were measured using different PKC isozymes (e.g., PKCβI, FIGS. 20A-20D). HEK293 cells were transfected to overexpress PKCβ-mVenus and treated with probes in the presence of verapamil (100 μM) as an inhibitor of efflux.

[4] = test system: HEK293 cells expressing PKCβI-mVenus; experiment: Kinetics of uptake of probes in HEK293 cells transiently transfected with PKCβI-mVenus; assay type: cell-based; details: probe 1 μM, room temperature, BIM1 2 μM, 4% FBS
Method: Cells were treated with probes and analyzed by flow cytometry. […] [BIM1]=2 μM. [FBS]=4%.
as §1
The cells were re-suspended in fresh reduced serum media lacking antibiotics (4% FBS) at a cell density of ˜500,000 cells per mL and were added to a 96-well plate (100 μL per well). […] Fluorescent probes were prepared as absorbance-normalized 1 mM DMSO stock solutions and diluted into reduced serum DMEM media lacking antibiotics (4% FBS) to achieve a final concentration of the probe of 1 μM ([…]). [BIM1]=2 μM. After addition of probes, cells were analyzed at room temperature every 5 min as singletons. Living cells with the greatest green fluorescence from expression of mVenus (top 20%, transfected) and the lowest green fluorescence (bottom 20%, non-transfected) were gated to obtain median PB450 values of uptake of the fluorescent probes. For the slower kinetics of uptake of probe 3, cells were analyzed every 20 min in triplicate. These curves were fitted with a one-phase association model (GraphPad Prism 9) to determine t1/2 values.

[5] = target: T4, native (untagged) murine PKCζ (Mus musculus, UniProt Q02956); experiment: FPCBA saturation binding of probe 1, native PKCζ (IRES-mVenus) in HEK293 cells; details: BIM1 2 μM, 2 h at 37° C., 4% FBS
T4 sequence (Q02956 1-592): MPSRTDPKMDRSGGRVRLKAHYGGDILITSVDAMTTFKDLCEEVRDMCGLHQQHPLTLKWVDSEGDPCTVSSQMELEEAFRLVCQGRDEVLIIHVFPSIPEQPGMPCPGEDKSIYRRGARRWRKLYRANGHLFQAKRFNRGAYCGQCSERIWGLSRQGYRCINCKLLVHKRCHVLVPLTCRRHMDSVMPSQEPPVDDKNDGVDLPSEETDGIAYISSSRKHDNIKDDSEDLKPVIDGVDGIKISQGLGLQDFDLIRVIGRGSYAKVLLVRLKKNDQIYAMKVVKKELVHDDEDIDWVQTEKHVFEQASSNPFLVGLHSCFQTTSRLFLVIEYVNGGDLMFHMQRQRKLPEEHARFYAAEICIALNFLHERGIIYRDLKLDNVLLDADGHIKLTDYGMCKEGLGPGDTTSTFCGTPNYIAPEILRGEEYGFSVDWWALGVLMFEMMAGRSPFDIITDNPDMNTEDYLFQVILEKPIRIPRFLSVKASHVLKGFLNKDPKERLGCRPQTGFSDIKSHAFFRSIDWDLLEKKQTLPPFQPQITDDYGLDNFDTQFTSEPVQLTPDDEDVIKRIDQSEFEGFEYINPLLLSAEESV

[6] = target: native (untagged) murine PKCγ (Mus musculus, UniProt P63318); experiment: FPCBA saturation binding of probe 1, native PKCγ (IRES-mVenus) in HEK293 cells
murine PKCη-mVenus = murine PKCη-mVenus (Mus musculus, UniProt P23298); experiment: FPCBA saturation binding of probe 1, HEK293 cells expressing PKCη-mVenus (Example 3)

In the case of `CCC/C=C/C=C/C(=O)O[C@H]1/C(=C/C(=O)OC)C[C@H]2C[C@H]([C@@H](C)O)OC(=O)C[C@H](O)C[C@@H]3C[C@H](OC(C)=O)C(C)(C)[C@](O)(C[C@@H]4C/C(=C/C(=O)OC)C[C@H](/C=C/C(C)(C)[C@]1(O)O2)O4)O3` [bryostatin 1], the Ki [1] is listed as 4 nM, the Ki (PKCη) is listed as 2.2 nM and the Ki [2] is listed as 9 nM. The Ki (PKCβI) was 2.2 nM and the Ki [3] was 3 nM.

In the case of `CCCCCCN(CCCCCCCCCCCCNC(=O)c1cc2cc(F)c(O)c(F)c2oc1=O)C(=O)O[C@@]12[C@H](O)[C@@H](C)[C@@]3(O)[C@@H](C=C(CO)C[C@]4(O)C(=O)C(C)=C[C@@H]34)[C@@H]1C2(C)C` [probe 1, (1aR,1bS,4aR,7aS,7bS,8R,9R,9aS)-4a,7b,9-trihydroxy-3-(hydroxymethyl)-1,1,6,8-tetramethyl-5-oxo-1,1a,1b,4,4a,5,7a,7b,8,9-decahydro-9aH-cyclopropa[3,4]benzo[1,2-e]azulen-9a-yl (12-(6,8-difluoro-7-hydroxy-2-oxo-2H-chromene-3-carboxamido)dodecyl)(hexyl)carbamate], the “median blue fluorescence of cells expressing high levels of PKCβI-mVenus vs non-transfected cells” value (murine PKCβI-mVenus; 1 at 1 μM, 2 h, BIM1 2 μM) is reported as “ca. 4 fold”, the Kd (murine PKCβI-mVenus; BIM1 2 μM, 2 h at 37° C., 4% FBS, read-out: Cellular Kd for probe, PKCβI-mVenus) is reported as 200 nM and the “signal-to-background (S/B)” value (murine PKCβI-mVenus; with BIM1, 1.25 μM probe) is reported as 2.9. The “improvement of apparent cellular affinity for PKCβI by BIM1” value (murine PKCβI-mVenus; with vs without BIM1) was about 2 fold, the Kd (murine PKCδ-mVenus) was 657 ± 254 nM and the Kd (mouse PKCβI-mVenus) was 190 nM. The “half-time (t1/2) of cellular uptake in transfected cells” value [4] was 4 min, the “Cellular Kd for probe, native PKCζ” value [5] was “did not bind; also recorded: No binding” and the Kd [6] was 211 ± 92 nM. The Kd (murine PKCη-mVenus) was 250 ± 36 nM.
